Data reported in US9113629B2, “4-amino-6-(4-substituted-phenyl)-picolinates and 6-amino-2-(4-substituted-phenyl)-pyrimidine-4-carboxylates and their use as herbicides” (DOW AGROSCIENCES LLC, priority 2013, dated 2015).
Where two headings read alike, the source gives them in different places.

Columns and labels:
[1] = system: Key Broadleaf Weed and Crop Species; test: Post-emergent Test II herbicidal activity (Table 5); assay type: in vivo; settings: post-emergence, 336 h, 14 days after application; for pest or weed control at 70 g/ha: application rate 70 g ai/ha; for pest or weed control at 140 g/ha: application rate 140 g ai/ha
Outline: (§1)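 Scoring: visual, 0–100% injury at 14 d versus untreated. Treatment: overhead track spray, 187 L/ha, onto plants at the first–second true leaf stage. Growth: greenhouse, ~15 h light, 23–29 °C day, 22–28 °C night.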

[2] = system: Key Grass and Sedge Weeds as well as Grass Crops; test: Post-emergent Test II herbicidal activity (Table 6); assay type: in vivo; settings: post-emergence, 336 h; for pest or weed control at 70 g/ha: 70 g ai/ha; for pest or weed control at 140 g/ha: 140 g ai/ha
Outline: as §1

[3] = ABUTH: velvetleaf (Abutilon theophrasti), read-out: Visual Growth Reduction (%) 14 Days After Application, ABUTH
[4] = AMARE: redroot pigweed (Amaranthus retroflexus), read-out: Visual Growth Reduction (%) 14 Days After Application, AMARE
[5] = BRSNN: oilseed-rape, canola (Brassica napus), read-out: Visual Growth Reduction (%) 14 Days After Application, BRSNN
[6] = CHEAL: lambsquarters (Chenopodium album), read-out: Visual Growth Reduction (%) 14 Days After Application, CHEAL
[7] = EPHHL: wild poinsettia (Euphorbia heterophylla), read-out: Visual Growth Reduction (%) 14 Days After Application, EPHHL
[8] = HELAN: sunflower (Helianthus annuus), read-out: Visual Growth Reduction (%) 14 Days After Application, HELAN
[9] = VIOTR: wild pansy (Viola tricolor), read-out: Visual Growth Reduction (%) 14 Days After Application, VIOTR
[10] = CYPES: yellow nutsedge (Cyperus esculentus), read-out: Visual Growth Reduction (%) 14 Days After Application, CYPES
[11] = DIGSA: crabgrass (Digitaria sanguinalis), read-out: Visual Growth Reduction (%) 14 Days After Application, DIGSA
[12] = ECHCG: barnyardgrass (Echinochloa crus-galli), read-out: Visual Growth Reduction (%) 14 Days After Application, ECHCG
[13] = ORYSA: rice (Oryza sativa), crop, read-out: Visual Growth Reduction (%) 14 Days After Application, ORYSA
[14] = SETFA: giant foxtail (Setaria faberi), read-out: Visual Growth Reduction (%) 14 Days After Application, SETFA
[15] = SORVU: grain sorghum (Sorghum vulgare), read-out: Visual Growth Reduction (%) 14 Days After Application, SORVU
[16] = TRZSS (wheat, Triticum aestivum), crop, read-out: Visual Growth Reduction (%) 14 Days After Application, TRZSS
[17] = ZEAMX: maize, corn (Zea mays), crop, read-out: Visual Growth Reduction (%) 14 Days After Application, ZEAMX

COC(=O)c1nc(-c2ccc(Br)cc2)cc(N)c1Cl [Compound 67]
pest or weed control at 70 g/ha [1, 3]: 95 to 100%
pest or weed control at 140 g/ha [1, 3]: 95 to 100%
pest or weed control at 70 g/ha [1, 4]: 95 to 100%
pest or weed control at 140 g/ha [1, 4]: 95 to 100%
pest or weed control at 70 g/ha [1, 5]: 0 to 29%
pest or weed control at 140 g/ha [1, 5]: 60 to 74%
pest or weed control at 70 g/ha [1, 6]: 95 to 100%
pest or weed control at 140 g/ha [1, 6]: 95 to 100%
pest or weed control at 70 g/ha [1, 7]: 95 to 100%
pest or weed control at 140 g/ha [1, 7]: 95 to 100%
pest or weed control at 70 g/ha [1, 8]: 85 to 94%
pest or weed control at 140 g/ha [1, 8]: 95 to 100%
pest or weed control at 70 g/ha [1, 9]: 0 to 29%
pest or weed control at 140 g/ha [1, 9]: 0 to 29%
pest or weed control at 70 g/ha [2, 10]: 95 to 100%
pest or weed control at 140 g/ha [2, 10]: 95 to 100%
pest or weed control at 70 g/ha [2, 11]: 60 to 74%
pest or weed control at 140 g/ha [2, 11]: 75 to 84%
pest or weed control at 70 g/ha [2, 12]: 85 to 94%
pest or weed control at 140 g/ha [2, 12]: 95 to 100%
pest or weed control at 70 g/ha [2, 13]: 0 to 29%
pest or weed control at 140 g/ha [2, 13]: 0 to 29%
pest or weed control at 70 g/ha [2, 14]: 0 to 29%
pest or weed control at 140 g/ha [2, 14]: 0 to 29%
pest or weed control at 70 g/ha [2, 15]: 85 to 94%
pest or weed control at 140 g/ha [2, 15]: 85 to 94%
pest or weed control at 70 g/ha [2, 16]: 0 to 29%
pest or weed control at 140 g/ha [2, 16]: 0 to 29%
pest or weed control at 70 g/ha [2, 17]: 0 to 29%
pest or weed control at 140 g/ha [2, 17]: 45 to 59%
